Biological target: T1, L1 transport system (large neutral amino acid carrier, L1-system carrier) (Rattus norvegicus, UniProt Q63016)
T1 construct: functionality of their endogenous transporters such as the L1-system carrier; endogenous in cells; host or cells: rat primary cerebrovascular (brain microcapillary) endothelial cells, RBEC
Test: Competitive binding assay to the brain L1 transport system (L-[U-14C]phenylalanine on rat primary cerebrovascular endothelial cells)
Description: Compound samples in PBS (without Ca^+2, Mg^+2)-glucose 30 mM-HEPES 10 mM—DMSO 1% as prepared in Example 1 were thawed and left for at least 30 minutes at 20-23° C. before preparation of the following sub-dilutions for the competitive binding assay: • 200 μL of the stock solution were added to 800 μL PBS (without Ca^+2, Mg^+2)-Glucose-HEPES-1% DMSO (PBSD-1) [diluted 1:5 for a final 1:5 dilution] • 100 μL (1/5 dilution above) were added to 900 μL PBSD-1 [diluted 1:10 for a final 1:50 dilution] • 100 μL (1/50 dilution above) were added to 900 μL PBSD-1 [diluted 1:10 for a final 1:500 dilution]
These sub-dilutions were used immediately or stored overnight at 4° C. before the competitive binding assay. A volume of 45 μL of each of the compound dilutions (1:5, 1:50, 1:500) in PBSD-1 was added to the appropriate wells in the dilution plate.
Brains from sixty 24-day-old rats were dissected individually on a sterile lint moistened with ice cold Hanks' balanced salt solution (Gibco BRL, Grand Island, N.Y.) containing 10 mM HEPES (medium 1) supplemented with 0.1% BSA. Cerebellum, striatum, optic nerves, and brain stem (white matter) were removed. After a mid-sagittal section of the brain, the meninges and leptomeningeal debris were removed by rolling a sterile dry cotton swab on the cortices. (Ichikawa N, Naora K, Hirano H, Hashimoto M, Masumura S, and Iwamoto K (1996). Isolation and primary culture of rat cerebral microvascular endothelial cells for studying drug transport in vitro. J Pharmacol Toxicol Meth 36: 45-52.). Clean cortices were minced in pieces of ≈2 mm^3 in 15 mL of ice-cold medium 1-0.1% BSA. The preparation was divided into 4 sterile pre-weighed tubes and centrifuged at 330× g at 20-25° C. for 5 min. Tubes were weighed and pre-warmed (37° C.) and medium 1 with 0.5% BSA containing 0.3% collagenase and 10 μg/mL DNAse 1 (Roche, Laval, Quebec, Canada) were added to each tube (1 mL/g of tissue).
The brain-collagenase mixture was vigorously agitated in a water bath at 37° C. for 90 min. Fifteen min before the end of the digestion, the tissue was homogenized using a 10-mL pipette until a creamy mixture was obtained (≈20 aspirations). Cells were washed by adding medium 1 with 0.1% BSA to the homogenate (26 mL/tube) and centrifuged at 100× g at 20-25° C. for 7 min. This washing step was repeated 3 more times, once for 5 min and twice for 3 min. Each pellet was re-suspended in 25 mL of a 15% dextran solution prepared in medium 1 with 0.1% BSA and centrifuged at 3200× g at 4° C. for 25 min to isolate vessels from neural tissue and dextran layers. Vascular pellets were re-suspended in 5 mL Ca^++—Mg^++-free-medium 1 with 0.1% BSA (medium 2) at 20-25° C. and transferred in a 50-mL tube. Remaining vessels were collected by rinsing the tubes and pooling the rinsing suspension. (Rupnick M A, Carey A, and Williams S K (1988). Phenotypic diversity in cultured cerebral microvascular endothelial cells in vitro. Cell Develop Biol 24: 435-444.)
The vascular preparation was filtered and rinsed (20 mL of medium 2) through a sterile 355-μm mesh. The 355-μm filtrate was sequentially filtered twice (20 mL of medium 2) through sterile 112-μm meshes and rinsed (Stanimirovic D B, Wong J, Ball R, and Durkin J P (1995). Free radical-induced endothelial membrane dysfunction at the site of the blood-brain barrier: relationship between lipid peroxidation, Na,K-ATPase activity, and ^51Cr release. Neurochem Res 20:1417-1427.) and the latter filtrate was filtered and rinsed through a sterile 20-μm mesh. A final step of filtration and rinse was repeated through a double layer of 20-μm meshes. All 20-μm meshes, which retained the microcapillaries, were then transferred into a 50-mL tube containing 20 mL of a 0.1% collagenase/dispase (Roche) solution in medium 2 supplemented with 10 μg/mL DNAse 1 and 0.147 μg/mL tosyl-lysine-chloromethyl-ketone (Sigma Chemical Co., Oakville, Ontario, Canada) (medium 3).

T1 sequence (Q63016 whole entry): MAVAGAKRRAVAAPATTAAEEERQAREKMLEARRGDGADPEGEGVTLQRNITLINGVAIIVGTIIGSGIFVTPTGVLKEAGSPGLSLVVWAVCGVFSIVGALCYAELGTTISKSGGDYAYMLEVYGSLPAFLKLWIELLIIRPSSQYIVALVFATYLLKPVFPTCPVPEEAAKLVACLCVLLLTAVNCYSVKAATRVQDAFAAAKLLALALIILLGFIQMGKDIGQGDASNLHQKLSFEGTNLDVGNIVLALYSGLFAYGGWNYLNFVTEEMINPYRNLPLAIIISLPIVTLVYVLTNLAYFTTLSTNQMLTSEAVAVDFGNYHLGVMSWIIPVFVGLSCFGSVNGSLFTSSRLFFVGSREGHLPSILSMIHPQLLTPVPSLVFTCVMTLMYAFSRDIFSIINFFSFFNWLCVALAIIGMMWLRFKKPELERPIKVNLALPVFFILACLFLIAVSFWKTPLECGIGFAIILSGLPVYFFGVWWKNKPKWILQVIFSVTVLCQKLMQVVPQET
T1 sequence (Q794F9 whole entry partner): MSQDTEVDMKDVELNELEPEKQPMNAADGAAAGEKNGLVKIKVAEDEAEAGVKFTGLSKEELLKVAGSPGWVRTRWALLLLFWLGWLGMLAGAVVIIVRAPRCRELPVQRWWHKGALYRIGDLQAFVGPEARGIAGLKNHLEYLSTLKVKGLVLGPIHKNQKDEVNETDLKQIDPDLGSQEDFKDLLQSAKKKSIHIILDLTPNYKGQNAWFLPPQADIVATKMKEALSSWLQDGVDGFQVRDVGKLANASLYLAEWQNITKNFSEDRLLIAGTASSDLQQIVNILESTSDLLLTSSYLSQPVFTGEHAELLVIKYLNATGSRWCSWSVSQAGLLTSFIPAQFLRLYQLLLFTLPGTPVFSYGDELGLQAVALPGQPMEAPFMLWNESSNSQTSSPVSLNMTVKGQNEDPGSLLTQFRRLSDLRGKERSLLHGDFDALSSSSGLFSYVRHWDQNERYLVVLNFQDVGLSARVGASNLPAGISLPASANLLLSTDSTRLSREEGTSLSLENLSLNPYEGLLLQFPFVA

Row | Comparison with the Binding of Phenylalanine (10^−4 M) | Comparison with the Binding of Phenylalanine (10^−5 M) | Comparison with the Binding of Phenylalanine (10^−6 M) | SMILES | Status of Binding (compounds of Example 4, 10^−6, 10^−5 and 10^−4, Δ versus phenylalanine)
1 | 0 (X < 0 Rank 0) | 0 (X < 0 Rank 0) | 1 (0 < X < 10 Rank 1) | NC(Cc1ccc(-c2ccc(CN3CCN(c4ncccn4)CC3)cc2)cc1)C(=O)O (stereo not shown) [Compound 99] | 
2 | 0 (X < 0 Rank 0) | 0 (X < 0 Rank 0) | 1 (0 < X < 10 Rank 1) | Cc1ccnc(SCc2cccc(CC(N)C(=O)O)n2)n1 (stereo not shown) [Compound 121] | 
3 | 1 (0 < X < 10 Rank 1) | 1 (0 < X < 10 Rank 1) | 1 (0 < X < 10 Rank 1) | NC(Cc1ccc(-c2ccc(CSc3nc(-c4ccccc4)c(-c4ccccc4)[nH]3)cc2)cc1)C(=O)O (stereo not shown) [Compound 89] | 
4 | 0 (X < 0 Rank 0) | 0 (X < 0 Rank 0) | 1 (0 < X < 10 Rank 1) | NC(Cc1ccc(-c2ccc(CSc3ncccc3C(=O)O)cc2)cc1)C(=O)O (stereo not shown) [Compound 93] | 
5 | 1 (0 < X < 10 Rank 1) | 3 (X > 20 Rank 3) | 2 (10 < X < 20 Rank 2) | O=C(Nc1ccc(-c2ccccc2)cc1)NC(Cc1cccc(CSc2nnnn2-c2ccccc2)c1)C(=O)O (stereo not shown) [Compound 54] | 
6 | 0 (X < 0 Rank 0) | 0 (X < 0 Rank 0) | 1 (0 < X < 10 Rank 1) | NC(=O)C(N)Cc1cccc(CSc2ncnc3[nH]ncc23)n1 (stereo not shown) [Compound 34] | 
7 | 0 (X < 0 Rank 0) | 0 (X < 0 Rank 0) | 1 (0 < X < 10 Rank 1) | NC(Cc1cccc(CN2CCN(c3ncccn3)CC2)n1)C(=O)O (stereo not shown) [Compound 158] | 
8 | 2 (10 < X < 20 Rank 2) | 3 (X > 20 Rank 3) | 3 (X > 20 Rank 3) | CCOC(=O)c1cnc(SCc2cccc(CC(N)C(=O)O)n2)[nH]c1=O (stereo not shown) [Compound 146] | 
9 |  |  |  | N[C@@H](Cc1cccc(CSc2nccc(C(F)(F)F)n2)n1)C(=O)O [drawing 476] | 1 (1: −10 > Δ > −50%, lower binding affinity than phenylalanine)
10 | 0 (X < 0 Rank 0) | 2 (10 < X < 20 Rank 2) | 3 (X > 20 Rank 3) | NC(=O)C(N)Cc1cccc(CSc2nccc(N)n2)n1 (stereo not shown) [Compound 39] | 
11 | 0 (X < 0 Rank 0) | 1 (0 < X < 10 Rank 1) | 3 (X > 20 Rank 3) | NC(Cc1cccc(CSc2nnc(-c3ccncc3)o2)c1)C(=O)O (stereo not shown) [Compound 10] | 
12 | 2 (10 < X < 20 Rank 2) | 3 (X > 20 Rank 3) | 3 (X > 20 Rank 3) | NC(=O)C(N)Cc1cccc(CSc2nnnn2-c2ccc(O)cc2)c1 (stereo not shown) [Compound 4] | 
13 | 0 (X < 0 Rank 0) | 2 (10 < X < 20 Rank 2) | 2 (10 < X < 20 Rank 2) | NC(Cc1ccc(-c2ccc(CSc3ccnc4cc(C(F)(F)F)ccc34)cc2)cc1)C(=O)O (stereo not shown) [Compound 47] | 
14 | 2 (10 < X < 20 Rank 2) | 3 (X > 20 Rank 3) | 2 (10 < X < 20 Rank 2) | Cn1cnnc1SCc1ccc(-c2ccc(CC(N)C(=O)O)cc2)cc1 (stereo not shown) [Compound 97] | 
15 | 2 (10 < X < 20 Rank 2) | 3 (X > 20 Rank 3) | 1 (0 < X < 10 Rank 1) | Cn1cnnc1Sc1cccc(-c2cccc(CC(N)C(=O)O)c2)c1 (stereo not shown) [Compound 82] | 

Row | SMILES | Comparison with the Binding of Phenylalanine (10^−4 M) | Comparison with the Binding of Phenylalanine (10^−5 M) | Comparison with the Binding of Phenylalanine (10^−6 M) | Status of Binding (compounds of Example 4, 10^−6, 10^−5 and 10^−4, Δ versus phenylalanine)
16 | NC(Cc1cccc(CSc2ncnc3[nH]ncc23)n1)C(=O)O (stereo not shown) [Compound 33] | 3 (X > 20 Rank 3) | 3 (X > 20 Rank 3) | 3 (X > 20 Rank 3) | 

Reference: patent publication US20060167057A1, “Compounds for the treatment of CNS and amyloid associated diseases” (priority 2004, published 2006)
